This is an account of results in US20060263895A1, “Method for monitoring the stereoselectivity and relative rate of organic chemical reactions” (priority 2005, published 2006).

The nature of test [1]: [total 1,2-propanediol] in aqueous ISES layer by 1H NMR. To be noted: for [diol] (mM) @ 15 min: aqueous ISES layer, 1H NMR, t = 15 min; for Norm.: normalized to the catalyst derived from salen 3b (rate 1.0). As to the method:
The concentration of 1,2-propanediol in the aqueous layer was estimated under typical ISES conditions using 1H NMR spectroscopy. The bilayer was prepared as usual for double cuvette-ISES (Section V), but for the substitution of D2O for H2O in the buffer, and the elimination of the dehydrogenase enzymes. After 15 min, the aqueous layer (300 μL of 500 μL total) was withdrawn and mixed with a fresh solution of imidazole of known concentration (also 300 μL in D2O), as an internal concentration standard. Accumulation of the 1H NMR spectrum, followed by integration and quantitation, provided an experimental measure of [total diol] in the aqueous reporting layer at t=15 minutes for the catalyst under investigation. The observed diol concentrations for ten catalysts examined in this way are collected in Table S6, below. These have been normalized to the value for the catalyst derived from salen 3b (arbitrarily assigned a rate of 1.0).

Test [2] is described as follows: Double cuvette-ISES (in situ enzymatic screening) of Co(III)-salen mediated HKR of (±)-propylene oxide. To be noted: bilayer of pH 8.6 buffer over 7.2 M epoxide in CHCl3, 0.25 mol % catalyst, 15-35 min; + = (S), − = (R). How it is done:
Aqueous reporting layers. containing TBADH/NADP+ (cuvette 1) and HLADH/NAD+ (cuvette 2), respectively, are then added. The increase in absorbance at 340 nm can be followed for several such sets in parallel by UV-vis spectrophotometry. The kinetic data are then used to make the double-cuvette ISES predictions.
A general procedure for double cuvette-ISES to estimate both enantioselectivities and relative rates for an array of catalysts being screened in parallel is presented below. The hydrolytic kinetic resolution (HKR) of (±) propylene oxide was chosen as model reaction.
Typically, quartz cuvettes with one cm light paths and with nominal one mL volumes were used. For each catalyst, a two cuvette screen was performed, with cuvette A containing HLADH, as (S)-propanediol-selective reporting enzyme, and cuvette B containing TBADH, as a (R)-propanediol-selective reporting enzyme. For each cuvette, the final volume was 800 μL (300 μL of organic layer; 500 μL of aqueous layer).
Both cuvettes A and B had the following composition: 150 μL (2.15 mmol) of (±)-propylene oxide (7.2 M in organic layer), 150 μL of CHCl3 and 0.25 mol % Co(III)-salen catalyst. The total organic layer volume was maintained as 300 μL in all catalyst screens.
(i) Cuvette A: 0.35 U HLADH (17.6 μL from a stock solution (0.02U/μL)), 7.2 mM β-NAD+(16.5 μL from a 220 mM stock) and 465.8 μL of 50 mM sodium pyrophosphate buffer, pH 8.8. The final pH was 8.6.
(ii) Cuvette B: 0.35 U TBADH (15.8 μL from a stock solution (0.022U/μL)) of, 2.2 mM β-NADP+ (5 μL from a 220 mM stock) and 479.5 μL of 50 mM sodium pyrophosphate buffer, pH 8.8. The final pH was 8.6. The total volume of the aqueous layer was maintained as 500 μL in both cuvettes in all ISES experiments.
C. Step by Step Protocol: A catalyst stock solution (22 μmol of catalyst in 620 μL CHCl3) was made up in a 1.5 ml microcentrifuge tube, and stored on ice, along with a stock of (±)-propylene oxide, in a separate tube. The organic layers were prepared by briefly vortexing 150 μL (5.4 μmol, 0.25 mol %) of the catalyst stock in CHCl3 with 150 μL (2.15 mmol) of (±)-propylene oxide in iced microcentrifuge tubes. These were loaded into 1 mL quartz cuvettes using precooled (refrigerator), disposable 1 mL syringes. The aqueous layers were then layered on top of the organic layers, by syringe, down the walls of the cuvette.

The nature of test [3]: HKR of (±)-propylene oxide under standard neat 'Jacobsen conditions' (NMR conversion, chiral HPLC ee). To be noted: for NMR conv. (time): 3 h; for NMR conv. (time) / % ee (HPLC): loading 0.25 mol %; for % ee of the 1,2-propanediol product, as observed by chiral HPLC (lower number): neat propylene oxide, 0.55 equiv. H2O, 0.25 mol % catalyst, 3 h reaction time. As to the method: Salens in the fully synthetic, 42 member focused library that led to catalysts with appreciable activity, as indicated by double cuvette-ISES, were also evaluated ‘outside of the cuvette,’ under conditions more typically employed in HKR reactions. Specifically, these Co(III)-salen catalysts were evaluated in the HKR of (±)-propylene oxide, under neat conditions, similar to those described by Jacobsen and coworkers. Reactions were arbitrarily stopped after 3 hours, to obtain the enantiopurity of the 1,2-propanediol product at relatively early reaction times, for comparison with ISES predictions.
A typical procedure follows: To the Co(III)-salen catalyst derived from 7e (5.4 mg, 5.4 μmol, 0.25 mol %) and (±)-propylene oxide (125 mg, 2.15 mmol) at 0° C., was added water (21 μL, 1.18 mmol, 0.55 equiv.). The reaction mixture was securely capped, and allowed to warm to room temperature and stirred, most commonly for a total of 3 hours. Percent conversion at 3 hours was evaluated by 1H NMR of an aliquot (cooled to 0° C. for the transfer), in CDCl3. In most of these cases, the conversion was low enough after 3 hours, that the unreacted epoxide (bp 32° C.) was of relatively low ee, and was therefore removed by evaporation under aspirator vacuum. When the conversion was less than 5% by NMR after 3 hours, reactions were continued for longer times.
Upon termination of the reaction, the diol product was isolated by Kugelrohr distillation (˜120° C.-oven temp; 0.1 torr). To determine ee, the isolated diol was derivatized using p-bromobenzoyl imidazole (2.2 equiv.) in THF in the presence of NaH (4 equiv.) at room temperature for 5 min. The bis(p-bromobenzoate) esters obtained following sequential washes with 1 N HCl and saturated sodium bicarbonate, were of sufficient purity to be used directly for chiral HPLC analysis (Chiralcel OD, 99% […]). [drawing 23] [drawing 24] [drawing 25] [drawing 26] [drawing 27]

Setting [4] is: reaction stopped at the time given (mostly 3 h), + = (S), − = (R).

For `CC(C)(C)c1cccc(C=NC[C@@H](N=Cc2cccc(C(C)(C)C)c2O)c2ccccc2)c1O` [Salen 2b, N,N′-Bis(3′-tert-butylsalicylidene)-(1S)-phenyl-1,2-ethylenediamine], in test [1], the “[diol] (mM) @ 15 min” value is given as 22 mM and the Norm. was 0.23. For the same compound, in test [2], the “% ee of the 1,2-propanediol product, as predicted by double-cuvette ISES (upper number)” value is −73 % ee. Moreover, the “NMR conv. (time)” value in test [3] is 26 (3 h) %. Further, the “% ee (HPLC)” value in test [3] (setting [4]) is −75 (R) % ee. Moreover, the “% ee of the 1,2-propanediol product, as observed by chiral HPLC (lower number)” value (from here on “% ee … (lower number)”) in test [3] (+ = (S), − = (R)) is on record as −75 % ee.

Regarding `CC(C)(C)c1cccc(C=NC[C@H](Cc2ccccc2)N=Cc2cccc(C(C)(C)C)c2O)c1O` [Salen 3b, N,N′-Bis(3′-tert-butylsalicylidene)-(1S)-benzyl-1,2-ethylenediamine], in test [1], the “[diol] (mM) @ 15 min” value worked out at 96 mM and the Norm. was 1.0. Also, in test [2], the “% ee of the 1,2-propanediol product, as predicted by double-cuvette ISES (upper number)” value is “+70 % ee”. Besides, the “% ee (HPLC)” value in test [3] (setting [4]) was “+57 (S) % ee”. For the same compound, in test [3] (+ = (S), − = (R)), the “% ee … (lower number)” value is “+57 % ee”.

Take `CC(C)(C)c1cccc(C=NC[C@H](Cc2cccc3ccccc23)N=Cc2cccc(C(C)(C)C)c2O)c1O` [Salen 4b, N,N′-Bis(3′-tert-butylsalicylidene)-(1S)-(α-naphthylmethyl)-1,2-ethylenediamine]: in test [1], the “[diol] (mM) @ 15 min” value is listed as 98 mM and the Norm. turned out to be 1.02. Further, the “% ee of the 1,2-propanediol product, as predicted by double-cuvette ISES (upper number)” value in test [2] was “+91 % ee”. Further, the “NMR conv. (time)” value in test [3] is listed as 50 (3 h) %. For the same compound, in test [3] (setting [4]), the “% ee (HPLC)” value is recorded as “+59 (S) % ee”. Moreover, the “% ee … (lower number)” value in test [3] (+ = (S), − = (R)) is on record as “+59 % ee”.

For the compound `CC(C)(C)c1cc(C=NC[C@H](Cc2ccc3ccccc3c2)N=Cc2cc(C(C)(C)C)cc(C(C)(C)C)c2O)c(O)c(C(C)(C)C)c1` [Salen 5a, N,N′-Bis(3′,5′-di-tert-butylsalicylidene)-(1S)-(β-naphthylmethyl)-1,2-ethylenediamine], in test [1], the “[diol] (mM) @ 15 min” value came to 52.5 mM and the Norm. came to 0.55. The “% ee of the 1,2-propanediol product, as predicted by double-cuvette ISES (upper number)” value in test [2] is on record as “+87 % ee”. In addition, the “NMR conv. (time)” value in test [3] is on record as 36 (3 h) %. Besides, the “% ee (HPLC)” value in test [3] (setting [4]) is on record as “+66 (S) % ee”. In test [3] (+ = (S), − = (R)), the “% ee … (lower number)” value is recorded as “+66 % ee”.

For the compound `CC(C)(C)c1cccc(C=NC[C@H](Cc2ccc3ccccc3c2)N=Cc2cccc(C(C)(C)C)c2O)c1O` [Salen 5b, N,N′-Bis(3′-tert-butylsalicylidene)-(1S)-(β-naphthylmethyl)-1,2-ethylenediamine], in test [1], the “[diol] (mM) @ 15 min” value amounted to 75.5 mM and the Norm. was 0.79. Also, the “% ee of the 1,2-propanediol product, as predicted by double-cuvette ISES (upper number)” value in test [2] was “+65 % ee”. Also, in test [3], the “NMR conv. (time)” value is listed as 45 (3 h) %. Further, the “% ee (HPLC)” value in test [3] (setting [4]) is given as “+68 (S) % ee”. In addition, the “% ee … (lower number)” value in test [3] (+ = (S), − = (R)) is on record as “+68 % ee”.

With `Oc1c(C=NC[C@H](Cc2ccc3ccccc3c2)N=Cc2ccc3ccccc3c2O)ccc2ccccc12` [Salen 5d, N,N′-Bis(1′-hydroxy-2′-naphthylidene)-(1S)-(β-naphthylmethyl)-1,2-ethylenediamine], in test [1], the “[diol] (mM) @ 15 min” value stood at 54 mM and the Norm. was 0.56. Also, the “% ee of the 1,2-propanediol product, as predicted by double-cuvette ISES (upper number)” value in test [2] is “+9 % ee”. Moreover, in test [3], the “NMR conv. (time)” value is on record as 10 (3 h) %. For the same compound, the “% ee (HPLC)” value in test [3] (setting [4]) is “+11 (S) % ee”. Also, in test [3] (+ = (S), − = (R)), the “% ee … (lower number)” value is recorded as “+11 % ee”.

Take “N,N′-Bis(1′-hydroxy-2′-naphthylidene)-[1R-(1α,2α,5α)]-2-amino-7,7-dimethyl-2-bicyclo[3.3.1]heptane-ethanamine [Salen 1d]”: in test [1], the “[diol] (mM) @ 15 min” value turned out to be 91 mM and the Norm. came out at 0.95. Also, the “% ee of the 1,2-propanediol product, as predicted by double-cuvette ISES (upper number)” value in test [2] was “+75 % ee”. In test [3] (@1 h), the “% ee (HPLC)” value is “+81@1 h, % ee”. For the same compound, the “% ee (HPLC)” value in test [3] (@3 h) is “+67@3 h (S) % ee”. Further, the “% ee … (lower number)” value in test [3] (+ = (S), − = (R)) is “+81 % ee”.
